The values that follow come from ChEMBL document CHEMBL1135448, “Synthesis and SAR of N-substituted dibenzazepinone derivatives as novel potent and selective alpha(V)beta(3) antagonists” (Bioorg Med Chem Lett, 2002).

Test [1] addresses T1, Integrin alpha-V/beta-3 (Homo sapiens, UniProt P05106+P06756). Nature of the test: Affinity against alpha V-beta3 integrin via competitive ELISA using vitronectin as natural ligand. The format is protein-complex assay. On the technique in general: An ELISA detects its analyte on a solid surface through an enzyme-linked reagent.
The target of test [2] is T1, Integrin alpha-V/beta-3. Kind of test: Displacement of vitronectin from alphaV-beta3 integrin in ELISA (Not active). It counts as protein-complex assay.
For another test, the species on record is Homo sapiens. Nature of the test: Evaluated for primary human smooth muscle cell migration. It counts as functional.
Test [3] has as its target Integrin alpha-IIb/beta-3 (Homo sapiens, UniProt P05106+P08514). Kind of test: Displacement of alphaIIb-beta3 integrin from fibrinogen by ELISA. The format is protein-complex assay.
Test [4] concerns the target Integrin alpha-5/beta-1 (Homo sapiens) (UniProt P05556+P08648). Nature of the test: Cell adhesion via alpha5-beta1 integrin to fibronectin at 10e-5 M (Not active). It counts as protein-complex assay.
Test [5] addresses Integrin alpha-4/beta-1 (Homo sapiens) (UniProt P05556+P13612). Nature of the test: Cell adhesion of alpha4-beta1 integrin to fibronectin at 10e-5 M (Not active). The format is protein-complex assay.
Test [6] has as its target T1, Integrin alpha-V/beta-3. Kind of test: Cell adhesion of alphaV-beta3 integrin expressed in CHO-K1 cell to osteopontin (OPN). The format is cell-based.
Another test relates to Caco-2. Kind of test: Apparent permeability constant (Papp) was evaluated for Caco-2 model permeation. It counts as functional, cell-based. The note with it: Homo sapiens. For orientation: Caco-2 cells form a polarised layer with tight junctions and transporters.
For test [7], the target named is T1, Integrin alpha-V/beta-3. Nature of the test: Adhesion of recombinant alphaV-beta3 integrin expressed in CHO-K1 to osteopontin (OPN). The format is cell-based.

Values joined by “and” are separate entries in the source; they are usually repeats but may differ in a detail not shown here. Equal entries are not always repeated. Active and inactive are the calls of the source. The calls are words filed in the database; no cut-off is given here.

As to `O=C(O)CC1c2ccccc2C(=O)N(CC(=O)NCc2cccc(-c3nc4ccccc4[nH]3)c2)c2ccccc21` (centres undefined), the half-inhibitory concentration (IC50) at Integrin alpha-V/beta-3 [1] came to 10000 nM.

On to `O=C(O)CC1c2ccccc2C(=O)N(CC(=O)NCc2ccc(OC(=O)NCc3ccccc3)cc2)c2ccccc21` (centres undefined), for which, at Integrin alpha-V/beta-3 [1], the IC50 came out at 10000 nM.

As to `O=C(O)CC1c2ccccc2C(=O)N(CCNCc2ccc(NC(=O)NCc3ccccc3)cc2)c2ccccc21` (centres undefined), on Integrin alpha-V/beta-3 [2], the IC50 result was “Not Active”. With `O=C(O)CC1c2ccccc2C(=O)N(CCOCc2ccc(NC(=O)NCc3ccccc3)cc2)c2ccccc21` (centres undefined), on Integrin alpha-V/beta-3 [2], the IC50 entry is reported as “Not Active”. With `O=C(O)CC1c2ccccc2C(=O)N(CC(=O)NCCCCCNc2nc3ccccc3[nH]2)c2ccccc21` (centres undefined), the IC50 on Integrin alpha-V/beta-3 [1] was 12.9 nM. `O=C(O)CC1c2ccccc2C(=O)N(CC(=O)NCc2ccc(-c3nc4ccccc4[nH]3)cc2)c2ccccc21` (centres undefined): the IC50 at Integrin alpha-V/beta-3 [1] came out at 74 nM.

On Integrin alpha-V/beta-3 [1], `O=C(O)CC1c2ccccc2C(=O)N(CCCCc2ccc(NC(=O)NCc3ccccc3)cc2)c2ccccc21` (centres undefined) displayed an IC50 of 10000 nM. Compound `O=C(O)CC1c2ccccc2C(=O)N(CC(=O)NCc2ccc(NC(=O)OCc3ccccc3)cc2)c2ccccc21` (centres undefined) showed an IC50 on Integrin alpha-V/beta-3 [1] of 10000 nM. Regarding `O=C(O)CC1c2ccccc2C(=O)N(CC(=O)NCc2cc(-c3nc4ncccc4[nH]3)cs2)c2ccccc21` (centres undefined), the IC50 at Integrin alpha-V/beta-3 [1] was determined as 500 nM. On to `O=C(O)CC1c2ccccc2C(=O)N(CC(=O)NCCc2ccc(-c3nc4ccccc4[nH]3)cc2)c2ccccc21` (centres undefined), for which the IC50 on Integrin alpha-V/beta-3 [1] is 380 nM.

Consider `O=C(O)CC1c2ccccc2C(=O)N(CC(=O)NCc2nc(-c3nc4ccccc4[nH]3)cs2)c2ccccc21` (centres undefined), for which the IC50 at Integrin alpha-V/beta-3 [1] amounted to 1000 nM. In the case of `O=C(O)CC1c2ccccc2C(=O)N(CC(=O)NCc2ccc(Nc3nc4ccccc4[nH]3)cc2)c2ccccc21` (centres undefined), the Inhibition in the test listed under Homo sapiens came out at 67%. Further, the IC50 in test [3] is greater than 100000 nM; at Integrin alpha-V/beta-3 [1], 7 nM and 7.3 nM; against Integrin alpha-V/beta-3 [6] it was 100 nM. In addition, the inhibition entry in test [4] and in test [5] was “inactive” each time. On Integrin alpha-V/beta-3 [1], `O=C(O)CC1c2ccccc2C(=O)N(CC(=O)NCc2ccc(-c3nc4ccccc4[nH]3)nc2)c2ccccc21` (centres undefined) yielded an IC50 of 200 nM. For the compound `O=C(O)CC1c2ccccc2C(=O)N(CC(=O)NCCCNc2ccccn2)c2ccccc21` (centres undefined), on Integrin alpha-V/beta-3 [1], the IC50 was determined as 1000 nM.

As to `O=C(O)CC1c2ccccc2C(=O)N(CC(=O)NCc2ccc(NC(=O)CCc3ccccc3)cc2)c2ccccc21` (centres undefined), the IC50 entry on Integrin alpha-V/beta-3 [2] is on record as “Not Active”. `O=C(O)CC1c2ccccc2C(=O)N(CC(=O)NCCCCNc2nc3ccccc3[nH]2)c2ccccc21` (centres undefined): the IC50 at Integrin alpha-V/beta-3 [1] was 14.9 nM. Turning to `O=C(O)CC1c2ccccc2C(=O)N(CC(=O)NCc2cc(-c3nc4ccccc4[nH]3)cs2)c2ccccc21` (centres undefined), the IC50 at Integrin alpha-V/beta-3 [1] stood at 100 nM. Compound `O=C(O)CC1c2ccccc2C(=O)N(CC(=O)Nc2ccc(-c3nc4ccccc4[nH]3)cc2)c2ccccc21` (centres undefined) came in with an IC50 on Integrin alpha-V/beta-3 [1] of 5000 nM. `O=C(O)CC1c2ccccc2C(=O)N(CC(=O)NCc2nc3ccccc3[nH]2)c2ccccc21` (centres undefined): at Integrin alpha-V/beta-3 [1], the IC50 is 1000 nM. On to `O=C(O)CC1c2ccccc2C(=O)N(CC(=O)NCc2cc(CNc3ccccn3)cs2)c2ccccc21` (centres undefined), for which the IC50 on Integrin alpha-V/beta-3 [1] is 220 nM. Regarding `O=C(O)CC1c2ccccc2C(=O)N(CC(=O)NCc2ccc(Nc3ccccn3)cc2)c2ccccc21` (centres undefined), the half-inhibitory concentration (IC50) at Integrin alpha-V/beta-3 [1] came out at 5000 nM.

In turn, `NC(N)=Nc1ccc(CNC(=O)CN2C(=O)c3ccccc3C(CC(=O)O)c3ccccc32)cc1` (centres undefined) yielded a concentration for half-maximal inhibition (IC50) on Integrin alpha-V/beta-3 [1] of 84 nM.

Take `Cc1cc2nc(-c3ccc(CNC(=O)CN4C(=O)c5ccccc5C(CC(=O)O)c5ccccc54)cc3)[nH]c2cc1C` (centres undefined): the IC50 at Integrin alpha-V/beta-3 [1] came out at 220 nM.

On Integrin alpha-V/beta-3 [1], `N=C(N)c1csc(CNC(=O)CN2C(=O)c3ccccc3C(CC(=O)O)c3ccccc32)c1` (centres undefined) displayed an IC50 of 1000 nM. Compound `O=C(O)CC1c2ccccc2C(=O)N(CC(=O)NCc2ccc(-c3nc4ccccc4[nH]3)s2)c2ccccc21` (centres undefined) registered an IC50 on Integrin alpha-V/beta-3 [1] of 500 nM. In the test listed under Homo sapiens, `O=C(O)CC1c2ccccc2C(=O)N(CC(=O)NC[C@H]2CC[C@H](Nc3nc4ccccc4[nH]3)CC2)c2ccccc21` (some centres undefined) showed an Inhibition of 100%. The IC50 in test [3] is greater than 100000 nM; at Integrin alpha-V/beta-3 [1] it was 1.6 nM; on Integrin alpha-V/beta-3 [7] it was 40 nM. The inhibition entry in [4] and in [5] was “inactive” each time. The Papp with Caco-2 came to 2.7 ×10⁻⁶ cm/s.

`O=C(O)CC1c2ccccc2C(=O)N(CC(=O)NCc2ccc(NC(=O)NCc3ccccc3)cc2)c2ccccc21` (centres undefined) gave an IC50 on Integrin alpha-V/beta-3 [1] of 23 nM. Consider `O=C(O)CC1c2ccccc2C(=O)N(CC(=O)NCc2ccc(-c3nc4cc(Cl)ccc4[nH]3)cc2)c2ccccc21` (centres undefined), for which the IC50 at Integrin alpha-V/beta-3 [1] worked out at 620 nM.

The term IC50 denotes the concentration needed to halve the response being measured. As a reminder, the Inhibition is the drop in the measured response relative to a control, in per cent. Usually Papp stands for the rate of passage across a membrane or cell layer, normalised by area and donor concentration.
